For data set [1] the following is noted: cited from earlier work.
In a further data set the test system is acute inflammation. As to conditions: literature value; cited from earlier work.
For data set [2] the following is noted: literature value; cited from earlier work.
For data set [3], the system named is Wistar rats. As to conditions: prototype of RU 2513089; cited from earlier work.
Data set [4] relates to subacute (formalin) edema. As to conditions: prototype of RU 2513089; cited from earlier work.
For another data set, the system named is cyclooxygenase (COX). In words: COX activity assay (fluorometric kit, peroxidase activity) with skin fibroblast (HSF) cell lysate. It counts as biochemical. As to conditions: fibroblast cell lysate, 1.25 to 20 μM in the well.
Data set [5] concerns Wistar rats. It counts as in vivo. As to conditions: for Analgesic effect, total/analgesic effect / Paw volume 0 hours / Paw volume 3 hours / Analgesic effect, %: 15 mg/kg. How it is done:
In the study of analgesic properties of the formula I compound, were taken female and male Wistar rats aged 6-7 weeks with a body mass of 180-220 g. The number of animals in each group was 10.
[…] inflammation was modeled in rats by subplantar administration of 0.1 ml of a 1% solution of carrageenin (a sulfated polysaccharide from Irish sea moss) into the right hind paw. The substance was administered intragastrically using a gastric probe.
Inflammatory hyperalgesia (increased pain sensitivity of inflamed tissues in rats) was caused by carrageenin and was assessed by decrease of the pain sensitivity threshold—PST (by PST difference) to mechanical irritation (squeezing) of the paw tissue of the animal before the introduction of carrageenin and 3 hours after it. The measurement was performed on the inflamed paw. Used analgesimeter Ugo Basile S.R.L. (Italy) provides a gradual increased afterload on the rat's inflamed paw until a pain reaction appears (assessed by squeaking of animal or withdrawing the paw). The analyte was administered 2 h after carrageenin administration. […] An increase in the pain response threshold under the influence of the substances under study was expressed in an increase in the force of compression of the limb and characterized the intensity of the analgesic effect of the preparation. After the experiment, animals were euthanized by carbon dioxide inhalation method.
The introduction to rats was carried out in the amount of no more than 1 ml/100 g. The concentration of the resulting solution was 5 mg/ml.
To prepare a dose of 20 mg/kg, 40 ml of solution with a concentration of 5 mg/ml (50 mg/kg) were taken, transferred to a 100 ml measuring flask with accuracy class A, adjusted to 100 ml with 0.5% water solution of Tween-80 and the suspension was dispersed to a homogeneous consistency using a dispersant.
To prepare a dose of 10 mg/kg, 20 ml of solution with a concentration of 5 mg/ml (50 mg/kg) were taken, transferred to a 100 ml measuring flask with accuracy class A, adjusted to 100 ml with 0.5% aqueous solution of Tween-80 and the suspension was stirred to a homogeneous consistency with a magnetic stirrer MR Hei-Standard (Heidolph, Germany).
To prepare a dose of 5 mg/kg, […] of solution with a concentration of 5 mg/ml (50 mg/kg) were taken, transferred to a 100 ml measuring flask with accuracy class A, adjusted to 100 ml with 0.5% water solution of Tween-80 and the suspension was stirred to a homogeneous consistency with a magnetic stirrer.

In data set [6] the test system is Wistar rats. It counts as in vivo. As to conditions: for Δ t after 2 hours, (M ± SD) / Δ t after 3 hours, (M ± SD) / Δ t after 4 hours, (M ± SD) / Δ t after 5 hours, (M ± SD) / Δ t after 6 hours, (M ± SD) / Δ t after 7 hours, (M ± SD): 15 mg/kg. How it is done: In the study of antipyretic properties of the formula I compound, were taken female and male Wistar rats aged 6-7 weeks, with a body mass of 180-220 g. The number of animals in each group was 10.
The febrile reaction was caused by subcutaneous administration of a 20% suspension of baking yeast. The rectal temperature was measured with an electrothermometer prior to the introduction of yeast and 18 hours after it (the difference of these measurements is the estimated hyperthermic reaction). The preparation was administered to animals at the peak of hyperthermia once (after 18 hours). The antipyretic effect was evaluated by hyperthermia decrease 2 hours after the injection of the test substance, and then the effect dynamics was recorded at hourly intervals for 7 hours.
The introduction to rats was carried out in the amount of no more than 1 ml/100 g. The concentration of the resulting solution was 7.5 mg/ml.
The difference in temperature after preparation administration and after 18 hours of induction with yeast was taken as the parameter of hyperthermia decrease.
Animals were observed individually after administration throughout the study. […] Wilcoxon nonparametric criterion was used for statistical comparison of experimental groups. Differences were determined at the 0.05 level of significance. The statistical analysis was carried out using the R-studio program.

Like-named read-outs stand apart in the source and are kept apart here.

On to “2-[(2,6-dichlorophenyl) amino] benzene acetic acid [Diclofenac sodium]”, for which the UD50 in data set [1] (literature value) was 48 mg/kg.

As usually defined, the LD50 is the dose at which mortality reaches 50%. On to `CC(C)Cc1ccc(C(C)C(=O)O)cc1` (racemic) [Ibuprofen, (RS)-2-(4-isobutylphenyl) propionic acid], for which the ED50 acute inflammation in the data set on acute inflammation was 48 mg/kg. Further, the UD50 in data set [1] (literature value) was 310 mg/kg. For the same molecule, in data set [2], the LD50 is recorded as 750 mg/kg.

Take `COc1ccc2cc([C@H](C)C(=O)OCc3cnc(C)c(OC(=O)[C@@H](C)c4ccc5cc(OC)ccc5c4)c3COC(=O)[C@@H](C)c3ccc4cc(OC)ccc4c3)ccc2c1` [(2S,2'S)-(5-((S)-2-(6-methoxinaft-2-yl)propanoiloxy)-6-methylpyridine-3,4-diyl) bis (methylene) bis (2-(6-methoxynaphth-2-yl) propanoate)]: the “Efficacy on the model of acute (carrageenin) edema in vivo” value with Wistar rats [3] is reported as “not effective enough”. Moreover, the “Efficacy on the model of subacute (formalin) edema in vivo” value in data set [4] is listed as “pronounced anti-inflammatory effect”.

In the case of `CC(=O)Oc1ccccc1C(=O)O` [Acetylsalicylic acid], the ED50 acute inflammation in the data set on acute inflammation is on record as 98 mg/kg. Moreover, in data set [1] (literature value), the UD50 is recorded as 240 mg/kg and the “UD50/ED50 (safety index)” value is listed as 2.45. In addition, in data set [2], the LD50 is 1600 mg/kg and the “LD50/ED50 (therapeutic index)” value is listed as 16.

For the molecule `COc1ccc2c(c1)c(CC(=O)O)c(C)n2C(=O)c1ccc(Cl)cc1` [Indomethacin, 1-(4-chlorobenzoyl)-5-methoxy-2-methyl-1H-indol-3-acetic acid], in the data set with acute inflammation, the ED50 acute inflammation is reported as 10 mg/kg. Also, in data set [1] (literature value), the UD50 was 10 mg/kg and the “UD50/ED50 (safety index)” value is listed as 1. In addition, in data set [2], the 50% lethal dose (LD50) was 47 mg/kg and the “LD50/ED50 (therapeutic index)” value is recorded as 4.7.

One may read the IC50 as the midpoint of a concentration-inhibition curve. Low values mean inhibition by little substance, high ones a need for much substance. Consider `COc1ccc2cc([C@H](C)C(=O)O)ccc2c1` [Naproxen, (S)-6-methoxy-α-methyl-2-naphthalenacetic acid, reference compound], for which the midpoint of inhibition in the data set with cyclooxygenase (COX), the IC50, lay at 9.56 µM. Further, in the data set on Wistar rats [5] (females), the “Analgesic effect, total/analgesic effect” value is reported as 10/7; the “Paw volume 0 hours” value was 5.0 ± 6.2; the “Paw volume 3 hours” value was found to be 5.0 ± 3.2. Moreover, in the data set on Wistar rats [5] (females, control = 100.0), the “Analgesic effect, %” value was 195.3 ± 125.3%. Besides, the “Dose at which a pronounced anesthetic effect is exhibited” value in the data set on Wistar rats [5] (intragastric) was determined as 15 mg/kg. Also, the “Analgesic effect, total/analgesic effect” value in the data set with Wistar rats [5] (males) is given as 10/7. For the same molecule, in the data set on Wistar rats [5] (rat, in vivo), the “Analgesic effect, %” value was 234.5 ± 160.2%; the “Paw volume 0 hours” value is listed as 5.0 ± 2.9; the “Paw volume 3 hours” value worked out at 6.7 ± 4.6. Moreover, the “Level of temperature decrease” value with Wistar rats [6] (15 mg/kg (or 65 μmol/kg)) is 0.74-1.6 °C. Further, in the data set on Wistar rats [6] (females), the “Δ t after 2 hours, (M ± SD)” value is on record as 1.64; the “Δ t after 3 hours, (M ± SD)” value worked out at 1.35; the “Δ t after 4 hours, (M ± SD)” value is on record as 1.58; the “Δ t after 5 hours, (M ± SD)” value turned out to be 1.21. For the same molecule, in the data set with Wistar rats [6] (females), the “Δ t after 6 hours, (M ± SD)” value was 1.09 and the “Δ t after 7 hours, (M ± SD)” value was 0.74. Besides, in the data set with Wistar rats [6] (males), the “Δ t after 2 hours, (M ± SD)” value is on record as 1.39; the “Δ t after 3 hours, (M ± SD)” value is on record as 1.49; the “Δ t after 4 hours, (M ± SD)” value is given as 1.6; the “Δ t after 5 hours, (M ± SD)” value is listed as 1.51. Further, in the data set on Wistar rats [6] (males), the “Δ t after 6 hours, (M ± SD)” value is reported as 1.53 and the “Δ t after 7 hours, (M ± SD)” value was 1.44. In addition, the ED50 acute inflammation in the data set with acute inflammation is reported as 15 mg/kg. Moreover, the UD50 in data set [1] (literature value) is recorded as 49 mg/kg.

As for `CCCCC1C(=O)N(c2ccccc2)N(c2ccccc2)C1=O` [Phenylbutazone], the UD50 in data set [1] (literature value) is 120 mg/kg.

On to `CN1C(C(=O)Nc2ccccn2)=C(O)c2ccccc2S1(=O)=O` [Pyroxicam], for which the ED50 acute inflammation in the data set with acute inflammation was 20 mg/kg. The UD50 in data set [1] (in vivo) is reported as 36 mg/kg. Also, in data set [1] (literature value), the “UD50/ED50 (safety index)” value is recorded as 1.8. In data set [2], the LD50 is listed as 290 mg/kg and the “LD50/ED50 (therapeutic index)” value is given as 15.

These data come from patent US10688084B2 (priority 2016, dated 2020).
